In patent publication US7414068B2, “Benzopyran derivatives substituted with secondary amines including tetrazole, method for the preparation thereof and pharmaceutical compositions containing them” (Dongbu Hannong Chemical Co., Ltd., priority 2002, dated 2008):

Tests used:
[1] = tested on: Low density lipoprotein of human (human LDL); assay: Inhibitory effect against lipid peroxidation induced by copper (LDL oxidation, MDA); assay type: biochemical; conditions: CuSO4 10 μM, 37° C. 18 hours
Method: Low density lipoprotein of human (human LDL, sigma) was dissolved in water to be final concentration of 1 mg/ml. To remove EDTA (ethylenediamine tetraacetate), the aqueous solution was dialyzed in phosphate buffer at 4° C. for 18 hours. At this dialysis, phosphate buffer was changed three times. Phosphate buffer was added to LDL (100 μg LDL protein/ml) which EDTA was removed from the aqueous solution, additionally thereto CuSO4 10 μM as oxidant was added. […] Group to which CUSO4 was not added was used as blank group. Group to which CUSO4 and vehicle were added in place of test compounds was used as control group. The mixture was incubated at 37° C. for 18 hours. EDTA […] was added to the mixture to terminate the oxidation reaction.
As shown in example 4, Cu^2+ facilitates the oxidation reaction to produce malondialdehyde (MDA), lipid peroxidation product. The MDA quantification is achieved by reacting samples with 2-thiobarbituric acid (TBA) and measuring the absorbance at 530 nm. Also, 1,1,3,3-tetramethoxypropane purchased from sigma was used as standard materials. Inhibitory effect against lipid peroxidation of the test compounds was measured by MDA (nmol) to protein (mg). Decrease of MDA to that of control group was calculated.

[2] = tested on: isolated rat aorta; assay: Vasodilating effect on blood vessel excised from rats (methoxamine-constricted aorta); conditions: isolated rat aorta constricted with methoxamine (3 μM); read-out: Concentration for inhibition of constriction induced by methoxamine in rat arota (IC50)
Outline: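 Endothelium-denuded rat thoracic aortic rings (3 mm) in Krebs-Henseleit buffer, 37 °C, carbogen, 2 g resting tension, primed twice with 10^−5 M phenylephrine. After maximal contraction with 3×10^−6 M methoxamine, compounds added cumulatively at 1, 3, 10, 30 μM. IC50 = concentration giving 50% relaxation of maximal constriction, by linear regression.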

[3] = tested on: cortical neuron cells; assay: Protective effect on iron-induced neuronal cell injury (LDH release); assay type: cell-based; conditions: FeSO4 50 μM; for protective effect on neuron cell: Inhibition (%, 30 μM compound addition): LDH reduction vs control; for IC50: LDH
Outline: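 Embryonic (day 17–18) cortical neurons cultured 7–9 days, serum lowered to 0.2%, pretreated 30 min with compound (DMSO ≤0.1%), then exposed to 50 μM FeSO4 for 24 h. LDH released to medium measured; protection expressed as LDH reduction versus vehicle control.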

[4] = tested on: brain homogenate; assay: Inhibitory effect against lipid peroxidation by iron (MDA quantification); assay type: biochemical, rat; conditions: 100 μM compound, FeCl2 400 μM, 37° C. 30 min
Method: The rat brain was homogenized in a Krebs buffer (15 mM HEPES, 10 mM glucose, 140 mM NaCl, 3.6 mM KCl, 1.5 mM CaCl2, 1.4 mM KH2PO4, 0.7 mM MgCl2, PH 7.4) and the supernatant separated by centrifugation at 12,000 rpm for 10 min was used for further experiments. FeCl2 was added for the final concentration to be 400 μM. Then the brain homogenate was allowed to stand at 37° C. for 30 min for the facilitation of oxidation. Each of the test compounds was added at a concentration of 100 μM. For control group, only vehicle was applied.
Iron facilitates the oxidation of the said brain homogenate to produce malondialdehyde (MDA), lipid peroxidation product. Thus, the lipid peroxidation was determined by MDA quantification. The inhibitory effect against lipid peroxidation of the test compounds was evaluated by calculating MDA reduction rate of the test compounds compared with that of the control group.
Typically, the MDA quantification is achieved by reacting samples with 2-thiobarbituric acid (TBA) and measuring the absorbance at 530 nm. However, this method is unsuitable to treat samples on a large scale because of a boiling step. Thus, in this experiment, N-methyl-2-phenylindole was used instead of TBA.

[5] = tested on: HUVEC (Human Umbilical Vein Endothelial Cell); assay: Inhibitory effect against HUVEC tube formation; assay type: cell-based; design: key: −: no effect; +/−: slight effect; +: medium effect; ++: strong effect
Method: HUVEC (Human Umbilical Vein Endothelial Cell) were cultured, and tubulogenesis (tube formation) was induced in vascular endothelial cells by plating them onto the surface of Matrigel for several hours. The effect on tube formation of the test compounds were compared with the vehicle-treated control group, then confirmed their in-vitro anti-angiogenic effect indirectly.

[6] = Acute oral toxicity test in rats; conditions: SD, rat, in vivo, single oral dose, suspended in 0.5% methyl cellulose, read-out: lethal dose (LD50) for oral administration
Outline: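 Six-week-old SPF SD rats, two per group, received compounds orally as suspensions in 0.5% methyl cellulose. Endpoints were clinical signs, body weight, mortality, haematology, serum biochemistry and macroscopic necropsy of organs and tissues.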

[7] = tested on: cortical neuron cells; assay: Protective effect on hydrogen peroxide induced neuronal cell injury; assay type: cell-based; conditions: Addition 5 μM; hydrogen peroxide 30 μM
[8] = tested on: RAW 264.7 cells; assay: Inhibitory effect on NO production (LPS, Griess reagent); assay type: cell-based, murine; conditions: Mus musculus, RAW264.7, 24 h, Addition 30 μM, LPS 1 μg/ml, read-out: Inihibition (%) of NO production
Method: Using RPMI1640 media supplemented with 10% fetal bovine serum (FBS), RAW 264.7 cells (obtained from American Type Culture Collection), a murine macrophage cell line, were cultured at 37° C. in a 5% CO2 incubator. The RAW 264.7 cells were harvested and cell density was adjusted to 5×10^5 cell/ml with a RPMI media supplemented with 0.5% FBS and plated at 5×10^4 cell/well to 96-well plate, which were then cultured for 20 hours in a CO2 incubator. After removal of the media, the cells were pre-treated for 1 hour with fresh media containing 30 μM. The test compounds were dissolved in DMSO and diluted to respective concentration in the media. In order to minimize DMSO effect on the nitric oxide formation by the RAW 264.7 cells in the walls, the media were allowed to contain DMSO at a concentration of 0.1% or less.
After completion of one-hour pre-treatment, Lipopolysaccharide (E. coli serotype 055:B5) was added to activate the cells at a final concentration of 1 μg/ml, which were maintained for 24 hours in a CO2 incubator. As a result of the activation of RAW 264.7 cells with LPS, NO was formed. The NO release into the media was in a form of nitrite (NO2^−) and quantitatively measured using the Griess reagent. A control group was treated only with vehicle instead of test compounds.
The inhibitory effect of the test compounds against NO production were determined as the reduction of NO quantity compared with that of the control group.

[9] = tested on: isolated ischemic rat heart; assay: Cardioprotective effect in ischemic heart models of rats (Langendorff); conditions: 10 μM
Method: Male rats (300˜450 g, obtained form the experimental animal team of the Korea Research Institute of Chemical Technology) were anaesthetized by the intra-peritoneal injection of sodium pentobarbital at a dose of 100 mg/kg. Heparin (1,000 U/kg) was injected to the tail vein and then the heart was enucleated. Particularly, cannula (PE 240) was inserted to the organ. Rats were mechanically ventilated with a rodent ventilator, in situ aorta cannula was inserted into their aorta. In retorograde perfusion, their hearts were enucleated, then just hung onto Langendorff Apparatus. Tissue attached at the heart was removed. Heart was perfused in oxygenated modified Krebs-Henseleit bicarbonate buffer (composition<mM/L>116 NaCl, 4.7 KCl, 1.1 MgSO4, 1.17 KH2PO4, 24.9 NaHCO3, 2.52 CaCl2, 8.32 Glucose, 2.0 Pyruvate) at a constant perfusion pressure (85 mmHg). A metal cannula attached to latex balloon filled with solvent (ethanol: water=1:1 (v/v)) was placed in the left ventricle through pulmonary vein and connected to a isovolumetric pressure transducer (H.S.E., Germany) for measurement of left ventricular pressure (LVP). The hearts were allowed to equilibrate for 15 min, at which time left ventricular end-diastolic pressure (EDP) was adjusted to 5 mmHg and this balloon volume was maintained throughout the experiment.
Baseline cardiac contractile function, heart rate (HR), and coronary flow (CF) were measured. Cardiac contractile function was calculated by […], yielding LVDP (left ventricular developed pressure). Double product RPP (rate-pressure product) (DP), another important parameter for indirectly assessing cardiac performance in Langendorff heart impossible to measure cardiac output was calculated by multiplying HR by LVDP.
Throughout the experiment, total coronary blood flow was measured by the use of coronary flow probe (diameter: 1.0 mm) installed in aortic cannula with electromagnetic flowmeter. Temperature of heart was steadily maintained by immersing the heart at 37° C. in physiological saline solution to which 95% O2/5% CO2 was constantly supplied. After stabilization for 15 min, the hearts were pre-treated for 10 min in vehicle (0.04% DMSO) or mixture containing the compound of the present invention or control material. Thereafter, cardiac contractile function, HR and CF were repeatedly measured. Global ischemia was induced by completely shutting off the perfusate for 30 min. Severity of ischemia was determined as the time to contracture (TTC, min) during global ischemia in which the first 5 mmHg increase in EDP was observed. Then, the hearts were reperfused and, 30 min later, contractile functions (LVDP, HR and CF) was repeatedly measured. After reperfusion was accomplished for 30 min, LDH (lactate dehydrogenase) was measured as a sensitive index for loss of cell viability with a kit.

With tocopherol the “Inhibitory effect(%) against lipid peroxidation induced by copper” value (from here on “Inhibitory effect(%)”) ([1]; Addition 10^−5 M) was 29.7% and the “Inhibitory effect(%)” value ([1]; Addition 10^−7 M) was 21.3%.

For `CC(C)(Sc1cc(C(C)(C)C)c(O)c(C(C)(C)C)c1)Sc1cc(C(C)(C)C)c(O)c(C(C)(C)C)c1` [Probucol], the “Inhibitory effect(%)” value ([1]; Addition 10^−5 M) was 66.7%, the “Inhibitory effect(%)” value ([1]; Addition 10^−6 M) was 58.7% and the “Inhibitory effect(%)” value ([1]; Addition 10^−7 M) was 33.7%.

With `COC(OC)[C@@]1(C)Oc2ccc(N)cc2[C@H](N(Cc2nnn(C)n2)c2ccc(C)cc2)[C@H]1O` [Example 28, (2S,3R,4S)-6-amino-4-[N-(4-methylphenyl)-N-(2-methyl-2H-tetrazol-5-ylmethyl)amino]-3-hydroxy-2-methyl-2-dimethoxymethyl-3,4-dihydro-2H-1-benzopyran] the IC50 [2] was > 30 µM, the “protective effect on neuron cell: Inhibition (%, 30 μM compound addition)” value ([3]; 24 hours) was 103% and the IC50 ([3]; Cortical neurone, 24 h) was 4.1 µM. The “inhibitory effect against lipid peroxidation induced by iron (%, 100 μM)” value [4] was 83%, the “Tube formation (inhibitory effect)” value ([5]; 10 μM) was “+/−” and the “Tube formation (inhibitory effect)” value ([5]; 100 μM) was “+”. The LD50 [6] was > 2000 mg/kg.

In the case of `CC(CN1c2ccccc2Sc2ccccc21)N(C)C` (stereo not drawn) [Promethazine], the “Inhibition(%) of hydrogen peroxide induced neuronal cell injury” value [7] is reported as 97%.

For `COC(=O)c1cccc(N(Cc2nnn(C)n2)[C@H]2c3cc([N+](=O)[O-])ccc3O[C@](C)(C(OC)OC)[C@@H]2O)c1` [Example 58, (2S,3R,4S)-6-nitro-4-[N-(3-methoxycarbonylphenyl)-N-(2-methyl-2H-tetrazol-5-ylmethyl)amino]-3-hydroxy-2-methyl-2-dimethoxymethyl-3,4-dihydro-2H-1-benzopyran], the inhibition at 30 µM [8] was > 75%.

`COC(OC)[C@@]1(C)Oc2ccc([N+](=O)[O-])cc2[C@H](N(Cc2nnn(C)n2)c2c(C)cccc2C)[C@H]1O` [Example 47, (2S,3R,4S)-6-nitro-4-[N-(2,6-dimethylphenyl)-N-(2-methyl-2H-tetrazol-5-ylmethyl)amino]-3-hydroxy-2-methyl-2-dimethoxymethyl-3,4-dihydro-2H-1-benzopyran] showed an inhibition at 30 µM [8] of 62%.

With `COC(OC)[C@@]1(C)Oc2ccc([N+](=O)[O-])cc2[C@H](N(Cc2nnn(C)n2)c2cc(C)ccc2O)[C@H]1O` [Example 70, (2S,3R,4S)-6-nitro-4-[N-(2-hydroxy-5-methylphenyl)-N-(2-methyl-2H-tetrazol-5-ylmethyl)amino]-3-hydroxy-2-methyl-2-dimethoxymethyl-3,4-dihydro-2H-1-benzopyran] the IC50 [2] was > 30 µM, the “protective effect on neuron cell: Inhibition (%, 30 μM compound addition)” value ([3]; 24 hours) was 85% and the IC50 ([3]; Cortical neurone, 24 h) was < 2 µM. For the same molecule, the IC50 ([3]; 24 hours) was 1.4 µM, the inhibition at 30 µM [8] was > 75% and the “EDP (mmHg)” value ([9]; after 30 min global ischemia and reperfusion) was 37.0 mmHg. The “LDH (u/g)” value ([9]; reperfusion LDH release) was 18.4 u/g, the “LVDP X HR (%)” value ([9]; reperfusion, % of pre-treatment DP) was 31.9% and the “TTC” value ([9]; time to contracture during global ischemia) was 22.0 min. The LD50 [6] was > 2000 mg/kg.

In the case of `COC(OC)[C@@]1(C)Oc2ccc([N+](=O)[O-])cc2[C@H](N(Cc2nnn(C)n2)c2ccc(Cl)cc2)[C@H]1O` [Example 2, (2S,3R,4S)-6-nitro-4-[N-(4-chlorophenyl)-N-(2-methyl-2H-tetrazol-5-ylmethyl)amino]-3-hydroxy-2-methyl-2-dimethoxymethyl-3,4-dihydro-2H-1-benzopyran], the “Tube formation (inhibitory effect)” value ([5]; 10 μM) is reported as “+” and the “Tube formation (inhibitory effect)” value ([5]; 100 μM) is reported as “++”.

In the case of `COC(OC)[C@@]1(C)Oc2ccc([N+](=O)[O-])cc2[C@H](N(Cc2nnn(C)n2)c2ccccc2O)[C@H]1O` [Example 60, (2S,3R,4S)-6-nitro-4-[N-(2-hydroxyphenyl)-N-(2-methyl-2H-tetrazol-5-ylmethyl)amino]-3-hydroxy-2-methyl-2-dimethoxymethyl-3,4-dihydro-2H-1-benzopyran], the “protective effect on neuron cell: Inhibition (%, 30 μM compound addition)” value ([3]; 24 hours) is reported as 87%, the IC50 ([3]; Cortical neurone, 24 h) is reported as < 1 µM and the IC50 ([3]; 24 hours) is reported as 0.7 µM. For the same molecule, the “inhibitory effect against lipid peroxidation induced by iron (%, 100 μM)” value [4] was 85%, the inhibition at 30 µM [8] was > 75% and the LD50 [6] was > 2000 mg/kg.
